Assay results reported in patent US8202866B2, “Ortho-aminoanilides for the treatment of cancer” (Hoffmann-La Roche Inc., priority 2008, dated 2012).

Columns and labels:
[1] = tested on: p21 promoter-luciferase construct in HeLa cells; assay: p21 reporter gene induction assay, HeLa cells transfected with p21 promoter-luciferase construct; type: cell-based; settings: compound at 3 micromolar; 15 hours incubation; relative to SNDX-275 (=100%)
Description: The novel compounds of the present invention were tested for their ability to induce p21 gene expression using a reporter gene assay involving HeLa cells transfected with a p21 promoter-luciferase construct. The p21 promoter contained the Sp1/Sp3 binding site for HDAC but not the upstream p53 binding site. Briefly, the day before transfection, HeLa cells were seeded at 11,000 cells/well in a 96-well culture plate and incubated at 37 degrees Celsius in 5% CO2 overnight. For transfection, the medium was removed and replaced with 100 microliters/well transfection media previously prepared as follows: 5 microliters serum-free DMEM, 0.15 microliters Fugene 6 reagent, 40 ng p21-luc, 10 ng GFP were mixed gently and incubated at room temperature for 30 minutes; then 98 microliters DMEM (with 10% FBS, 1% penicillin and streptomycin) was added to the DNA:Fugene 6 reagent complex and mixed gently. After incubating the cells for 24 hours at 37 degrees Celsius in 5% CO2, fresh media and test compounds were added to the wells and the cells further incubated for 15 hours at 37 degrees Celsius in 5% CO2. Cells were lysed by adding 80 microliters/well of a cell culture lysis reagent (Promega). 50 microliters of each lysate was taken for GFP detection using an excitation wavelength of 486 nm and detection at 527 nm. 100 microliters Luciferase assay reagent (Promega) was then added to every 20 microliters cell lysate for luminometer detection. […] Induction activity for specific representative compounds can be found in Table 7.

[2] = tested on: SMMC-7721 liver cancer cells; assay: Antiproliferative activity, in vitro growth inhibition assay (MTS/WST), SMMC-7721; type: cell-based; settings: Homo sapiens, 72 hours; for IC90: concentration required for 90% growth inhibition, read-out: GI90 (micromolar) SMMC-7721; for GI50: read-out: GI50 (micromolar) SMMC-7721
Description: The novel compounds of the present invention were tested for their ability to inhibit growth of various cancer cell lines using in vitro growth inhibition assays described below.
Cells were seeded in 96-well culture plates (200 microliters/well at different seeding concentrations depending on cell type) and incubated overnight at 37 degrees Celsius in 5% CO2. After adding compound dilutions to the cells (DMSO concentration kept below 0.5%), the cells were incubated at 37 degrees Celsius in 5% CO2 for 72 hours. The effects on proliferation were determined by addition of MTS reagent (Promega) according to the manufacturer's instruction, followed by incubation for 2 hours at 37 degrees Celsius in 5% CO2, and finally recording the absorbance at 490 nm using an ELISA plate reader.
Similar to MTS assay except that the developer is the CCK-8 reagent (Dojindo) and the plate reader is set to 450 nm absorbance.
GI50 and GI90 values against SMMC-7721 liver cancer cells for specific representative compounds can be found in Table 7.

Compound | IC90 [2] [µM] | GI50 [2] [µM] | p21 (RP3): relative induction potency compared with SNDX-275 [1] [%]
Nc1ccccc1NC(=O)/C=C/c1ccc(C(CCN2C[C@@H]3C[C@H]2CO3)C(=O)Nc2ccc(Br)cc2)cc1 (stereo partly drawn) [Example 6, 2-{4-[(E)-2-(2-Amino-phenylcarbamoyl)-vinyl]-phenyl}-N-(4-bromo-phenyl)-4-(1S,4S)-2-oxa-5-aza-bicyclo[2.2.1]hept-5-yl-butyramide] | 2.7 | 0.8 | 212
Nc1ccccc1NC(=O)/C=C/c1ccc(C(CCN2CCOCC2)C(=O)Nc2ccc(Br)cc2)cc1 (stereo not drawn) [Example 6-2, 2-{4-[(E)-2-(2-Amino-phenylcarbamoyl)-vinyl]-phenyl}-N-(4-bromo-phenyl)-4-morpholin-4-yl-butyramide] | 3.1 | 1 | 233
Nc1ccccc1NC(=O)/C=C/c1ccc(C(CCCN2CCOCC2)C(=O)Nc2ccc(Br)cc2)cc1 (stereo not drawn) [Example 9, 2-{4-[(E)-2-(2-Amino-phenylcarbamoyl)-vinyl]phenyl}-5-morpholin-4-yl-pentanoic acid (4-bromo-phenyl)-amide] | 2.9 | 1.3 | 253
Nc1ccccc1NC(=O)/C=C/c1ccc(C(CCCN2C[C@@H]3C[C@H]2CO3)C(=O)Nc2ccc(Br)cc2)cc1 (stereo partly drawn) [Example 9-2, 2-{4-[(E)-2-(2-Amino-phenylcarbamoyl)-vinyl]-phenyl}-5-(1S,4S)-2-oxa-5-aza-bicyclo[2.2.1]hept-5-yl-pentanoic acid (4-bromo-phenyl)-amide] | 1.5 | 0.7 | 74
Nc1ccccc1NC(=O)/C=C/c1ccc(C(CCCN2CCCCC2)C(=O)Nc2ccc(Br)cc2)cc1 (stereo not drawn) [Example 9-3, 2-{4-[(E)-2-(2-Amino-phenylcarbamoyl)-vinyl]-phenyl}-5-piperidin-1-yl-pentanoic acid (4-bromo-phenyl)-amide] | 2.1 | 0.8 | 305
CC(C)c1ccc(NC(=O)C(CCCN2C[C@@H]3C[C@H]2CO3)c2ccc(/C=C/C(=O)Nc3ccccc3N)cc2)cc1 (stereo partly drawn) [Example 9-4, 2-{4-[(E)-2-(2-Amino-phenylcarbamoyl)-vinyl]-phenyl}-5-(1S,4S)-2-oxa-5-aza-bicyclo[2.2.1]hept-5-yl-pentanoic acid (4-isopropyl-phenyl)-amide] | 4.9 | 1.4 | 155

Second part, led by results:

IC90 [2] [µM] | GI50 [2] [µM] | Compound | p21 (RP3): relative induction potency compared with SNDX-275 [1] [%]
3.2 | 1.1 | Nc1ccccc1NC(=O)/C=C/c1ccc(C(CCCN2CCCC(O)C2)C(=O)Nc2ccc(Br)cc2)cc1 (stereo not drawn) [Example 9-5, 2-{4-[(E)-2-(2-Amino-phenylcarbamoyl)-vinyl]-phenyl}-5-(3-hydroxy-piperidin-1-yl)-pentanoic acid (4-bromo-phenyl)-amide] | 127
2.5 | 0.8 | CN1CCCC1CCC(C(=O)Nc1ccc(Br)cc1)c1ccc(/C=C/C(=O)Nc2ccccc2N)cc1 (stereo not drawn) [Example 25, 2-{4-[(E)-2-(2-Amino-phenylcarbamoyl)-vinyl]-phenyl}-N-(4-bromo-phenyl)-4-(1-methyl-pyrrolidin-2-yl)-butyramide] | 199
3.3 | 0.9 | CCN(CC)C1CCN(CC(C(=O)Nc2ccc(Cl)cc2)c2ccc(/C=C/C(=O)Nc3ccccc3N)cc2)C1 (stereo not drawn) [Example 31, (E)-N-(2-Amino-phenyl)-3-{4-[1-(4-chloro-phenylcarbamoyl)-2-(3-diethylamino-pyrrolidin-1-yl)-ethyl]phenyl}-acrylamide] | 243
10.5 | 3.5 | Nc1ccccc1NC(=O)c1ccc(CNC(=O)OCc2cccnc2)cc1 [SNDX-275, reference compound] | 100
